We go through 19 molecules from patent publication US10385057B2, “Pyrazole compounds and methods of making and using same” (Lundbeck La Jolla Research Center, Inc., priority 2015, dated 2019).

Molecules are shown by their SMILES.

The target in one test is T1, MAGL (Mus musculus, UniProt O35678).
T1 construct: mouse brain membrane fraction or cell lysates for mouse assays; from tissue
T1 sequence (O35678 1-303): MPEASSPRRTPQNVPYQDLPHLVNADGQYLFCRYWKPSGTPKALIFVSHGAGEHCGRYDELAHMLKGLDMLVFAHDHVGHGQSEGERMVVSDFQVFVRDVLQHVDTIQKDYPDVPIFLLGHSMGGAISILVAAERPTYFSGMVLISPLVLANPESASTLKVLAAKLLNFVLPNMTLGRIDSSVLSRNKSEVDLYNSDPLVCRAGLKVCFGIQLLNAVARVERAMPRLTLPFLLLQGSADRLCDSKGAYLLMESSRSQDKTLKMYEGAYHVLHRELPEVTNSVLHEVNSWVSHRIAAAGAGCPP
As to the kind of experiment: In vitro competitive activity-based protein profiling, mouse MAGL. Format: biochemical. The following applies: for inhibition at 1 µM: read-out: MAGL % inh. 1 μM (mouse). The protocol: (§1) In Vitro Competitive Activity-Based Protein Profiling.
(§2) Proteomes (mouse brain membrane fraction or cell lysates for mouse assays; human prefrontal cortex or cell membrane fractions for human assays) (50 μL, 1.0 mg/mL total protein concentration) were preincubated with varying concentrations of inhibitors at 37° C. After 30 min, FP-Rh or HT-01 (1.0 μL, 50 μM in DMSO) was added and the mixture was incubated for another 30 min at 37° C. Reactions were quenched with SDS loading buffer (15 μL—4×) and run on SDS-PAGE. Following gel imaging, serine hydrolase activity was determined by measuring fluorescent intensity of gel bands corresponding to MAGL and FAAH using ImageJ 1.43u software.

The next test deals with T2, FAAH (Mus musculus, UniProt O08914).
T2 construct: mouse brain membrane fraction or cell lysates for mouse assays; from tissue
T2 sequence (O08914 1-579): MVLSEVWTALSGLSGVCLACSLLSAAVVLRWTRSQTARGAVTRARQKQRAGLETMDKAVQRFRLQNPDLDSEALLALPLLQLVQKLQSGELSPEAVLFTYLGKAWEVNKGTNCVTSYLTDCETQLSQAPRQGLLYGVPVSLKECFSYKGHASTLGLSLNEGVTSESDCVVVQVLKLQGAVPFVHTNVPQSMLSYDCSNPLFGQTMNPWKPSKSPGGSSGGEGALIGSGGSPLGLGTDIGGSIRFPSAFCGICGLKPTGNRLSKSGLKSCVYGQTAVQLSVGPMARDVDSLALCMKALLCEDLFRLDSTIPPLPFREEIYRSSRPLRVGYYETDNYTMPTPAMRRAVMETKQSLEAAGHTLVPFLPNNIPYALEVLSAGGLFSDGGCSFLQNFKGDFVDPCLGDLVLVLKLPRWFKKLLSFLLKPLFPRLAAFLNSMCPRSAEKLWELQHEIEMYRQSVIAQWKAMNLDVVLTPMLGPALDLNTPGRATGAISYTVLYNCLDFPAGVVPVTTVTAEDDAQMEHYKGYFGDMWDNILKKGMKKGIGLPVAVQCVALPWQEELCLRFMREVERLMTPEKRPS
As to the kind of experiment: In vitro competitive activity-based protein profiling, mouse FAAH. The format is biochemical. The following applies: for inhibition at 1 µM: read-out: FAAH % inh. 1 μM (mouse). As for the experimental part:
as §1, §2

Regarding `O=C(N1CCC2(CCN(Cc3cccc(N4CCOCC4)c3)C2)C1)n1cc(C(F)(F)F)cn1` (centres unmarked) [Example 175, (7-(3-morpholinobenzyl)-2,7-diazaspiro[4.4]nonan-2-yl)(4-(trifluoromethyl)-1H-pyrazol-1-yl)methanone], the inhibition at 1 µM at MAGL and on FAAH was no less than 75% each time.

As for `O=C(N1CCC2(CCN(Cc3ccccc3N3CCCC3)C2)C1)n1cc(C(F)(F)F)cn1` (centres unmarked) [Example 181, (7-(2-(pyrrolidin-1-yl)benzyl)-2,7-diazaspiro[4.4]nonan-2-yl)(4-(trifluoromethyl)-1H-pyrazol-1-yl)methanone], the inhibition at 1 µM on MAGL was no less than 75%; on FAAH, 25 to 50%.

As usually defined, the IC50 is the concentration at which inhibition is half-maximal. For `O=C(N1CCC2(CCN(Cc3cccc(Cl)c3)C2)C1)n1cc(Cl)cn1` (single isomer, unassigned) [Example 132, (4-chloro-1H-pyrazol-1-yl)(7-(3-chlorobenzyl)-2,7-diazaspiro[4.4]nonan-2-yl)methanone], the IC50 on MAGL is 100 to 1000 nM; on FAAH, no more than 100 nM. For the same molecule, the inhibition at 1 µM at MAGL and on FAAH was no less than 75% each time.

As for `O=C(N1CCC2(CCN(Cc3cccc(F)c3)C2)C1)n1cc(C(F)(F)F)cn1` (centres unmarked) [Example 169, (7-(3-fluorobenzyl)-2,7-diazaspiro[4.4]nonan-2-yl)(4-(trifluoromethyl)-1H-pyrazol-1-yl)methanone], on MAGL, the IC50 is 100 to 1000 nM and the inhibition at 1 µM is no less than 75%. Besides, on FAAH, the IC50 was no more than 100 nM and the inhibition at 1 µM was no less than 75%.

Take `O=C(c1cnn(C(=O)N2CC3CN(Cc4cc(Cl)cc(C(F)(F)F)c4)CC3C2)c1)N1CCN(C2CC2)CC1` (centres unmarked) [Example 11, (5-(3-chloro-5-(trifluoromethyl)benzyl)hexahydropyrrolo[3,4-c]pyrrol-2(1H)-yl)(4-(4-cyclopropylpiperazine-1-carbonyl)-1H-pyrazol-1-yl)methanone]: the inhibition at 1 µM at MAGL and at FAAH was no less than 75% each time.

Turning to `CN(Cc1cccc(Oc2ccccc2)c1)[C@H]1C[C@@H]2CN(C(=O)n3cc(Cl)cn3)C[C@@H]2C1` [Example 162, (4-chloro-1H-pyrazol-1-yl)(trans-5-(methyl(3-phenoxybenzyl)amino)hexahydrocyclopenta[c]pyrrol-2(1H)-yl)methanone], the IC50 on MAGL and on FAAH was no more than 100 nM in each case. The inhibition at 1 µM at MAGL and on FAAH was no less than 75% throughout.

Take `O=C(N1CC2CN(Cc3cccc(Cl)c3)CC2C1)n1cc(C(F)(F)F)cn1` (centres unmarked) [Example 149, (5-(3-chlorobenzyl)hexahydropyrrolo[3,4-c]pyrrol-2(1H)-yl)(4-(trifluoromethyl)-1H-pyrazol-1-yl)methanone]: at MAGL, the IC50 fell in the range of 100 to 1000 nM and the inhibition at 1 µM is no less than 75%. Further, at FAAH, the IC50 was no more than 100 nM and the inhibition at 1 µM is no less than 75%.

Take `CN(Cc1ccccc1Cl)[C@@H]1C[C@@H]2CN(C(=O)n3cc(C(=O)N4CCCC4)cn3)C[C@@H]2C1` [Example 57, (trans-5-((2-chlorobenzyl)(methyl)amino)hexahydrocyclopenta[c]pyrrol-2(1H)-yl)(4-(pyrrolidine-1-carbonyl)-1H-pyrazol-1-yl)methanone]: the “MAGL % inh. 1 μM (mouse)” value at MAGL is “B (% inhibition greater than or equal to 50% and less than 75%)”. On FAAH, the “FAAH % inh. 1 μM (mouse)” value was “A (% inhibition greater than or equal to 75%)”.

Turning to `CNC(=O)c1cnn(C(=O)N2CCC3(CCN(Cc4cccc(C(F)(F)F)c4)C3)C2)c1` (centres unmarked) [Example 42, N-methyl-1-(7-(3-(trifluoromethyl)benzyl)-2,7-diazaspiro[4.4]nonane-2-carbonyl)-1H-pyrazole-4-carboxamide], the inhibition at 1 µM on MAGL was 0 to 25%; at FAAH it was no less than 75%. For the same molecule, the inhibition at 10 µM on MAGL (10 μM, read-out: MAGL % inh. at 10 μM (mouse)) came out at 100%; at FAAH (10 μM, read-out: FAAH % inh. at 10 μM (mouse)), 100%.

Take `CN(Cc1ccccc1Cl)[C@H]1C[C@@H]2CN(C(=O)n3cc(C(=O)N4CCOCC4)cn3)C[C@@H]2C1` [Example 86, (trans-5-((2-chlorobenzyl)(methyl)amino)hexahydrocyclopenta[c]pyrrol-2(1H)-yl)(4-(morpholine-4-carbonyl)-1H-pyrazol-1-yl)methanone]: the inhibition at 1 µM on MAGL is 50 to 75%; at FAAH, no less than 75%.

Consider `O=C(N1CC2CN(Cc3ccc(Cl)cc3N3CCC4(CCOCC4)C3)CC2C1)n1cc(Cl)cn1` (centres unmarked) [Example 111, (4-chloro-1H-pyrazol-1-yl)(5-(4-chloro-2-(8-oxa-2-azaspiro[4.5]decan-2-yl)benzyl)hexahydropyrrolo[3,4-c]pyrrol-2(1H)-yl)methanone], for which, at MAGL, the IC50 was no more than 100 nM and the inhibition at 1 µM is no less than 75%. In addition, on FAAH, the IC50 lay within 1000 to 10000 nM and the inhibition at 1 µM is no less than 75%.

In the case of `O=C(c1cnn(C(=O)N2CC3CN(Cc4cccc(C(F)(F)F)c4)CC3C2)c1)N1CCOCC1` (centres unmarked) [Example 7, (4-(morpholine-4-carbonyl)-1H-pyrazol-1-yl)(5-(3-(trifluoromethyl)benzyl)hexahydropyrrolo[3,4-c]pyrrol-2(1H)-yl)methanone], the inhibition at 1 µM on MAGL and on FAAH was no less than 75% each time.

In the case of `COc1ccccc1CN1CC2CN(C(=O)n3cc(C(F)(F)F)cn3)CC2C1` (centres unmarked) [Example 154, (5-(2-methoxybenzyl)hexahydropyrrolo[3,4-c]pyrrol-2(1H)-yl)(4-(trifluoromethyl)-1H-pyrazol-1-yl)methanone], on MAGL, the IC50 was no more than 100 nM and the inhibition at 1 µM was no less than 75%. Further, on FAAH, the IC50 was no more than 100 nM and the inhibition at 1 µM was no less than 75%.

On to `CN(Cc1ccc(C(F)(F)F)cc1)[C@H]1C[C@@H]2CN(C(=O)n3cc(C(=O)N4CCOCC4)cn3)C[C@@H]2C1` [Example 184, (trans-5-(methyl(4-(trifluoromethyl)benzyl)amino)hexahydrocyclopenta[c]pyrrol-2(1H)-yl)(4-(morpholine-4-carbonyl)-1H-pyrazol-1-yl)methanone], for which the figures for the inhibition at 1 µM on MAGL and at FAAH were 50 to 75% and no less than 75%, respectively.

For the molecule `CC(=O)N(Cc1ccc(Cl)cc1)[C@H]1C[C@@H]2CN(C(=O)n3cc(Cl)cn3)C[C@@H]2C1` [Example 70, N-(trans-2-(4-chloro-1H-pyrazole-1-carbonyl)octahydrocyclopenta[c]pyrrol-5-yl)-N-(4-chlorobenzyl)acetamide], the inhibition at 1 µM at MAGL is no less than 75%; at FAAH, 50 to 75%.

With `NC(=O)c1cnn(C(=O)N2CC3CN(Cc4ccc(N5CCOCC5)cc4C(F)(F)F)CC3C2)c1` (centres unmarked) [Example 2, 1-(5-(4-morpholino-2-(trifluoromethyl)benzyl)octahydropyrrolo[3,4-c]pyrrole-2-carbonyl)-1H-pyrazole-4-carboxamide], on MAGL, the IC50 is no more than 100 nM and the inhibition at 1 µM is no less than 75%. Also, at FAAH, the IC50 is no more than 100 nM and the inhibition at 1 µM was no less than 75%.

Turning to `CN(Cc1ccc(C(F)(F)F)c(N2CCCC2)c1)[C@H]1C[C@@H]2CN(C(=O)n3cc(C(N)=O)cn3)C[C@@H]2C1` [Example 216, 1-(trans-5-(methyl(3-(pyrrolidin-1-yl)-4-(trifluoromethyl)benzyl)amino)octahydrocyclopenta[c]pyrrole-2-carbonyl)-1H-pyrazole-4-carboxamide], the inhibition at 1 µM on MAGL and on FAAH was no less than 75% each time.

With `CNC(=O)c1cnn(C(=O)N2C[C@H]3C[C@@H](N(C)Cc4ccccc4Cl)C[C@H]3C2)c1` [Example 84, 1-(cis-5-((2-chlorobenzyl)(methyl)amino)octahydrocyclopenta[c]pyrrole-2-carbonyl)-N-methyl-1H-pyrazole-4-carboxamide], the “MAGL % inh. 1 μM (mouse)” value at MAGL is reported as “A (% inhibition greater than or equal to 75%)”. In addition, the “FAAH % inh. 1 μM (mouse)” value on FAAH is reported as “A (% inhibition greater than or equal to 75%)”.

Turning to `O=C(c1cnn(C(=O)N2CC3CN(Cc4cccc(Oc5ccc(Cl)cc5)c4)CC3C2)c1)N1CCOCC1` (centres unmarked) [Example 199, (5-(3-(4-chlorophenoxy)benzyl)hexahydropyrrolo[3,4-c]pyrrol-2(1H)-yl)(4-(morpholine-4-carbonyl)-1H-pyrazol-1-yl)methanone], on MAGL, the IC50 was in the range of 1000 to 10000 nM and the inhibition at 1 µM lay within 25 to 50%. Moreover, on FAAH, the IC50 was no more than 100 nM and the inhibition at 1 µM was no less than 75%.
